Assays:
[1] = target: Cyclin-dependent kinase 2/G1/S-specific cyclin-E1 (Homo sapiens, UniProt P24941); test: Kinase Inhibition Assay
Experimental: (§1) The enzyme was assayed with substrate GST-Rb in the presence of 50 mM ATP/[gamma-32P] ATP, and capturing the 32-P labeled reaction products on GSH-Sepharose beads. […] Use of 32P-labeled ATP allows this transfer to be monitored by scintillation counting.

[2] = target: Cyclin-dependent kinase 4/G1/S-specific cyclin-D1 (Homo sapiens, UniProt P11802); test: Kinase Inhibition Assay
Cyclin-dependent kinase 4/G1/S-specific cyclin-D1, sequence (P11802 whole entry): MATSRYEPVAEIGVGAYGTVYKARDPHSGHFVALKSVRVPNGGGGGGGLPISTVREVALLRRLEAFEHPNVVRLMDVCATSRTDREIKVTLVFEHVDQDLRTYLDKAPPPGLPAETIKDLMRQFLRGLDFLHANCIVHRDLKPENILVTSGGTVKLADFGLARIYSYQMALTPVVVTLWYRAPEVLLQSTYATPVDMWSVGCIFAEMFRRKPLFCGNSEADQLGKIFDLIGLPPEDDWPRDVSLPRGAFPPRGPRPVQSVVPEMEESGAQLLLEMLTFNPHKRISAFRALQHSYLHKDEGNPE
Cyclin-dependent kinase 4/G1/S-specific cyclin-D1, sequence (P24385 whole entry, further chain): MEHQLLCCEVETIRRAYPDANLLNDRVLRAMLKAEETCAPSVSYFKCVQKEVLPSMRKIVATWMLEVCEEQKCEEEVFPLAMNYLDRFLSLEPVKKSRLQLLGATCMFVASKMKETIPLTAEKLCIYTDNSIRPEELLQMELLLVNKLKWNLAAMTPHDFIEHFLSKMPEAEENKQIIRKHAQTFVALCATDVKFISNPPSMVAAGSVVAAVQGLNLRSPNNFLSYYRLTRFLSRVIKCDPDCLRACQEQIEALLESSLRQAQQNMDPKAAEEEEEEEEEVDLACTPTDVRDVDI
Experimental: as §1

COc1ccc(-c2[nH]nc3c2C(=O)c2c(NC(=O)NNC(=O)c4ccc(O)cc4O)cccc2-3)cc1 [2,4-dihydroxy-N-({[3-(4-methoxyphenyl)-4-oxo-2H,4H-indeno[1,2-c]pyrazol-5-yl]carbamoyl}amino)benzamide]
IC50 [1]: 16 nM
IC50 [2]: 12 nM

COc1ccc(-c2[nH]nc3c2C(=O)c2c(NC(=O)NNC(=O)c4cc(Cl)ccc4Cl)cccc2-3)cc1 [2,5-dichloro-N-({[3-(4-methoxyphenyl)-4-oxo-2H,4H-indeno[1,2-c]pyrazol-5-yl]carbamoyl}amino)benzamide]
IC50 ([1]; pH 7.6, 22 °C): 36 nM
IC50 [2]: 28 nM

COc1ccc(-c2[nH]nc3c2C(=O)c2c(NC(=O)NNC(=O)c4ccccc4OC)cccc2-3)cc1 [2-methoxy-N-({[3-(4-methoxyphenyl)-4-oxo-2H,4H-indeno[1,2-c]pyrazol-5-yl]carbamoyl}amino)benzamide]
IC50 ([1]; pH 7.6, 22 °C): 14 nM

COc1ccc(-c2[nH]nc3c2C(=O)c2c(NC(=O)NNC(=O)c4cc(N)cc(N)c4)cccc2-3)cc1 [3,5-diamino-N-({[3-(4-methoxyphenyl)-4-oxo-2H,4H-indeno[1,2-c]pyrazol-5-yl]carbamoyl}amino)benzamide]
IC50 ([1]; pH 7.6, 22 °C): 39 nM
IC50 [2]: 16 nM

COc1ccc(-c2[nH]nc3c2C(=O)c2c(NC(=O)NNC(=O)c4cc(OC)cc(OC)c4)cccc2-3)cc1 [3,5-dimethoxy-N-({[3-(4-methoxyphenyl)-4-oxo-2H,4H-indeno[1,2-c]pyrazol-5-yl]carbamoyl}amino)benzamide]
IC50 [2]: 24 nM

COc1ccc(-c2[nH]nc3c2C(=O)c2c(NC(=O)NNC(=O)CCc4ccc(O)cc4)cccc2-3)cc1 [3-(4-hydroxyphenyl)-N-({[3-(4-methoxyphenyl)-4-oxo-2H,4H-indeno[1,2-c]pyrazol-5-yl]carbamoyl}amino)propanamide]
IC50 ([1]; pH 7.6, 22 °C): 13 nM

COc1ccc(-c2[nH]nc3c2C(=O)c2c(NC(=O)NNC(=O)Nc4ccccc4)cccc2-3)cc1 [3-[3-(4-methoxyphenyl)-4-oxo-2H,4H-indeno[1,2-c]pyrazol-5-yl]-1-[(phenylcarbamoyl)amino]urea]
IC50 ([1]; pH 7.6, 22 °C): 19 nM

COc1ccc(-c2[nH]nc3c2C(=O)c2c(NC(=O)NNC(=O)c4ccc(O)c(N)c4)cccc2-3)cc1 [3-amino-4-hydroxy-N-({[3-(4-methoxyphenyl)-4-oxo-2H,4H-indeno[1,2-c]pyrazol-5-yl]carbamoyl}amino)benzamide]
IC50 ([1]; pH 7.6, 22 °C): 24 nM

COc1ccc(-c2[nH]nc3c2C(=O)c2c(NC(=O)NNC(=O)c4cccc(N)c4)cccc2-3)cc1 [3-amino-N-({[3-(4-methoxyphenyl)-4-oxo-2H,4H-indeno[1,2-c]pyrazol-5-yl]carbamoyl}amino)benzamide]
IC50 [1]: 13 nM

COc1ccc(C(=O)NNC(=O)Nc2cccc3c2C(=O)c2c(-c4ccc(OC)cc4)n[nH]c2-3)cc1 [4-methoxy-N-({[3-(4-methoxyphenyl)-4-oxo-2H,4H-indeno[1,2-c]pyrazol-5-yl]carbamoyl}amino)benzamide]
IC50 ([1]; pH 7.6, 22 °C): 15 nM
IC50 [2]: 11 nM

COc1ccc(-c2[nH]nc3c2C(=O)c2c(NC(=O)NNC(=O)C(C)C)cccc2-3)cc1 [N-({[3-(4-methoxyphenyl)-4-oxo-2H,4H-indeno[1,2-c]pyrazol-5-yl]carbamoyl}amino)-2-methylpropanamide]
IC50 ([1]; pH 7.6, 22 °C): 19 nM

COc1ccc(-c2[nH]nc3c2C(=O)c2c(NC(=O)NNC(=O)Cc4ccccc4)cccc2-3)cc1 [N-({[3-(4-methoxyphenyl)-4-oxo-2H,4H-indeno[1,2-c]pyrazol-5-yl]carbamoyl}amino)-2-phenylacetamide]
IC50 [1]: 33 nM
IC50 [2]: 27 nM

COc1ccc(-c2[nH]nc3c2C(=O)c2c(NC(=O)NNC(=O)c4cccc(C)c4)cccc2-3)cc1 [N-({[3-(4-methoxyphenyl)-4-oxo-2H,4H-indeno[1,2-c]pyrazol-5-yl]carbamoyl}amino)-3-methylbenzamide]
IC50 ([1]; pH 7.6, 22 °C): 13 nM

COc1ccc(-c2[nH]nc3c2C(=O)c2c(NC(=O)NNC(=O)c4cccc([N+](=O)[O-])c4)cccc2-3)cc1 [N-({[3-(4-methoxyphenyl)-4-oxo-2H,4H-indeno[1,2-c]pyrazol-5-yl]carbamoyl}amino)-3-nitrobenzamide]
IC50 ([1]; pH 7.6, 22 °C): 24 nM

COc1ccc(-c2[nH]nc3c2C(=O)c2c(NC(=O)NNC(=O)c4ccc(C)cc4)cccc2-3)cc1 [N-({[3-(4-methoxyphenyl)-4-oxo-2H,4H-indeno[1,2-c]pyrazol-5-yl]carbamoyl}amino)-4-methylbenzamide]
IC50 ([1]; pH 7.6, 22 °C): 24 nM

COc1ccc(-c2[nH]nc3c2C(=O)c2c(NC(=O)NNC(C)=O)cccc2-3)cc1 [N-({[3-(4-methoxyphenyl)-4-oxo-2H,4H-indeno[1,2-c]pyrazol-5-yl]carbamoyl}amino)acetamide]
IC50 [1]: 37 nM
IC50 [2]: 57 nM

COc1ccc(-c2[nH]nc3c2C(=O)c2c(NC(=O)NNC(=O)c4ccccc4)cccc2-3)cc1 [N-({[3-(4-methoxyphenyl)-4-oxo-2H,4H-indeno[1,2-c]pyrazol-5-yl]carbamoyl}amino)benzamide]
IC50 [1]: 12 nM

COc1ccc(-c2[nH]nc3c2C(=O)c2c(NC(=O)NNC(=O)C(N)=O)cccc2-3)cc1 [N-({[3-(4-methoxyphenyl)-4-oxo-2H,4H-indeno[1,2-c]pyrazol-5-yl]carbamoyl}amino)ethanediamide]
IC50 [1]: 97 nM

COc1ccc(-c2[nH]nc3c2C(=O)c2c(NC(=O)NNC(=O)c4cccc5ccccc45)cccc2-3)cc1 [N-({[3-(4-methoxyphenyl)-4-oxo-2H,4H-indeno[1,2-c]pyrazol-5-yl]carbamoyl}amino)naphthalene-1-carboxamide]
IC50 ([1]; pH 7.6, 22 °C): 53 nM

COc1ccc(-c2[nH]nc3c2C(=O)c2c(NC(=O)NNC(=O)c4ccc5ccccc5c4)cccc2-3)cc1 [N-({[3-(4-methoxyphenyl)-4-oxo-2H,4H-indeno[1,2-c]pyrazol-5-yl]carbamoyl}amino)naphthalene-2-carboxamide]
IC50 [1]: 35 nM
IC50 [2]: 13 nM

COc1ccc(-c2[nH]nc3c2C(=O)c2c(NC(=O)NNC(=O)c4cccnc4)cccc2-3)cc1 [N-({[3-(4-methoxyphenyl)-4-oxo-2H,4H-indeno[1,2-c]pyrazol-5-yl]carbamoyl}amino)pyridine-3-carboxamide]
IC50 [1]: 16 nM

COc1ccc(-c2[nH]nc3c2C(=O)c2c(NC(=O)NNC(=O)c4ccncc4)cccc2-3)cc1 [N-({[3-(4-methoxyphenyl)-4-oxo-2H,4H-indeno[1,2-c]pyrazol-5-yl]carbamoyl}amino)pyridine-4-carboxamide]
IC50 [1]: 12 nM

COC(=O)NNC(=O)Nc1cccc2c1C(=O)c1c-2n[nH]c1-c1ccc(OC)cc1 [methoxy-N-({[3-(4-methoxyphenyl)-4-oxo-2H,4H-indeno[1,2-c]pyrazol-5-yl]carbamoyl}amino)formamide]
IC50 ([1]; pH 7.6, 22 °C): 16 nM

From BindingDB's records for doi:10.1016/j.bmcl.2004.09.023 (Dupont Pharmaceuticals, 2004)
